≈ marks a conversion by molar mass, not a printed value. Residues, ends and D or L forms follow the SMILES beside them.
Tests used:
[1] = test system: K. pneumoniae; experiment: microbe, parasite or virus in culture; conditions: for MIC: Klebsiella pneumoniae
Procedure: (§1) Briefly, bacterial colonies from blood agar plates were suspended and grown in Cation-Adjusted Mueller-Hinton Broth (CAMHB, […] Ca^2+, […] Mg^2+). The bacterial suspension was adjusted to 0.5 McFarland standard (∼1 × 10^8 colony-forming units (CFU)/ml) and serial diluted 1:200 in CAMHB (∼5 × 10^5 CFU/mL). […] The suspension was plated out on blood agar plates to confirm the CFU/ml. Both the microtiter plates and the blood agar plates were incubated at 37°C for 24 h.

[2] = test system: E. cloacae; experiment: microbe, parasite or virus in culture; conditions: Enterobacter cloacae, 24 h
Procedure: as §1

[3] = test system: P. aeruginosa; experiment: microbe, parasite or virus in culture; conditions: for MIC: Pseudomonas aeruginosa
Procedure: as §1

[4] = test system: E. faecalis; experiment: microbe, parasite or virus in culture; conditions: for MIC: Enterococcus faecalis
Procedure: as §1

[5] = test system: HEK293 cells
Procedure: HEK293 cells (6,000 cells/well) were seeded in 96-well microtiter plates. After 4 h, APIM-peptides (12–48 μg/ml) were added, and the cells were incubated without change of media for up to 4 days. Viability was measured using the 3-(4,5-dimethylthiazol-2-yl)-2,5-diphenyltetrazolium bromide (MTT) assay as described ([Gilljam et al., 2009]).
(1 picture or pasted object on this page, not shown here)

[6] = test system: S. epidermidis MRSE (SO-SEP9-1); conditions: SO-SEP9-1, 24 h
Procedure: as §1

[7] = test system: E. coli; experiment: microbe, parasite or virus in culture; conditions: K-12 MG1655; CLSI broth microdilution, CAMHB, 37°C, 24 h, visible growth; net peptide concentration
Procedure: as §1

[8] = test system: E. coli; experiment: Growth inhibition assay (OD600 over 24 h); type: cell-based, Escherichia coli; set-up: Reduction of viability E. coli (60 μg/ml): key to the marks not given beside the values; conditions: LB medium
Procedure: An overnight culture of Escherichia coli was diluted 1:100 in Luria-Bertani (LB) medium and allowed to grow until an optical density (OD) at 600 nm (OD600) of 0.06–0.1. APIM-peptides were prepared by serial dilution in Milli-Q H2O and kept at 4°C. Fresh LB medium (60 μl) was added to a flat-bottom microtiter plate. The bacterial suspension was diluted 1:100 in LB, and 75 μl of this suspension was added to the wells. Finally, 15 μl of APIM-peptide solution (to final concentrations 60, 120, and 240 μg/ml) or distilled water (positive control) was added to the wells, reaching a total volume of 150 μl per well. Data are presented only for the dose that separated the effect of the different peptides, i.e., 60 μg/ml. A blank sterile medium was used as negative control. The plates were incubated with shaking at 510 rpm at 37°C inside a plate reader (TECAN, Spark®), and OD was read every hour over a period of 24 h.
The MIC for E. coli in LB medium is higher than that in CAMHB; thus, concentrations higher than the MIC given in Table 2 are used in the growth inhibition and mutagenesis assays. […]
E. coli. Growth of E. coli in LB medium over 24 hours (Optical Density (OD) 600 nm) after addition
of APIM-peptide variants 1-5 (60 µg/mL) at time t=0 (see Table 2). Negative (-) control is no
bacteria added, positive (+) control is untreated bacteria.
highest inhibition of growth.
control (black filled line).

[9] = test system: E. coli; experiment: Rifampicin (RifR) mutagenesis assay after UV-C; type: cell-based, Escherichia coli; conditions: for Reduction of mutation frequency E. coli (20 μg/ml): 20 μg/ml peptide, UV-C 20 mJ/cm^2, RifR assay, relative to untreated control
Procedure: The rifampicin (Rif^R) mutagenesis assay was performed as described ([Nedal et al., 2020]). Briefly, an overnight culture of E. coli was diluted 1:1,000 and grown until an OD600 of 0.01. APIM-peptides (20 μg/ml) were added to LB media with glass beads (for uniform distribution of APIM-peptides) and incubated for 30 min at 37°C. The pellets were next collected, resuspended in 500 μl PBS, and exposed to UV-C (20 mJ/cm^2) in a six-well plate at 4°C. The unexposed bacteria (-UV) were otherwise handled exactly like the UV-exposed bacteria. Next, the cells were resuspended in LB media and incubated in a rotary shaker at 37°C at 250 rpm for 2 h before being harvested, diluted, and plated on LB with soft agar with and without rifampicin (100 μg/ml). Mutation frequency, Rif^R/10^8, is obtained as follows: (number of colonies on the rifampicin plate (Rif^R)/(number of colonies on LB plates without antibiotics), per milliliter of bacterial suspension. […]
mutagenesis in E. coli more efficiently than the other peptide variants.
Increase in mutation frequencies after treatment with UV-C (20 mJ/cm2) relative to spontaneous mutations frequencies using the RifR assay were determined. This increase is set to 100% for untreated control, and % reduction after addition of peptides 1-5 (20 μg/mL) are shown. Mean ± SD from three independent experiments. * p<0.05, ** p<0.005

CO/N=C(\C(=O)N[C@@H]1C(=O)N2C(C(=O)O)=C(COC(C)=O)CS[C@H]12)c1csc(N)n1 [Cefotaxime, cefotaxime]
Combination effect with 0.5× MIC betatide ([1]; ATCC 13883): Additive 2×
MIC ([1]; 24 h): 2050 mg/L (≈ 4500 µM)
MIC ([1]; ATCC13883, 24 h): 0.13 mg/L (≈ 0.285 µM)
Combination effect with 0.5× MIC betatide ([1]; SO-KPN19-1 (ESBL-CARBA-D)): None
MIC [2]: > 1020 mg/L

CC(C)(O/N=C(\C(=O)N[C@@H]1C(=O)N2C(C(=O)[O-])=C(C[n+]3ccccc3)CS[C@H]12)c1csc(N)n1)C(=O)O [Ceftazidime, ceftazidime]
Combination effect with 0.5× MIC betatide ([3]; ATCC 27853): None
MIC ([3]; 24 h): 128 mg/L (≈ 234 µM)
MIC ([3]; ATCC27853, 24 h): 2 mg/L (≈ 3.66 µM)
Combination effect with 0.5× MIC betatide ([3]; SO-PAE19-1 (multidrug resistant)): None
MIC [2]: > 1000 mg/L

CC(=O)NC[C@H]1CN(c2ccc(N3CCOCC3)c(F)c2)C(=O)O1 [Linezolid, linezolid]
Combination effect with 0.5× MIC betatide ([4]; ATCC 29212): None
MIC ([4]; 24 h): 8 mg/L (≈ 23.7 µM)
MIC ([4]; ATCC29212, 24 h): 2 mg/L (≈ 5.93 µM)
Combination effect with 0.5× MIC betatide ([4]; SO-EFA19-1 (optrA+)): None

CC[C@H](C)[C@H](NC(=O)[C@H](CCCCN)NC(=O)[C@H](CCCNC(=N)N)NC(=O)[C@H](CCCCN)NC(=O)[C@H](CCCCN)NC(=O)[C@H](CCCCN)NC(=O)[C@H](Cc1c[nH]c2ccccc12)NC(=O)[C@H](CCCCN)NC(=O)[C@@H](NC(=O)[C@H](CC(C)C)NC(=O)[C@H](Cc1c[nH]c2ccccc12)NC(=O)[C@H](CCCNC(=N)N)NC(=O)[C@H](CC(=O)O)NC(=O)[C@H](CCSC)NC(C)=O)C(C)C)C(=O)N[C@@H](CCCNC(=N)N)C(=O)N[C@@H](CCCNC(=N)N)C(=O)N[C@@H](CCCNC(=N)N)C(=O)N[C@@H](CCCNC(=N)N)C(=O)N[C@@H](CCCNC(=N)N)C(=O)N[C@@H](CCCNC(=N)N)C(=O)N[C@@H](CCCNC(=N)N)C(=O)N[C@@H](CCCNC(=N)N)C(=O)N[C@@H](CCCNC(=N)N)C(=O)N[C@@H](CCCNC(=N)N)C(=O)N[C@@H](CCCNC(=N)N)C(N)=O [Peptide 1] (Ac-MDRWLVKWKKKRKIRRRRRRRRRRR-NH2)
Reduction of viability HEK293 (24 μg/ml) [5]: +
MIC S. epidermidis MRSE [6]: 32 mg/L (≈ 8.71 µM)
MIC E. coli [7]: 32 mg/L (≈ 8.71 µM)
inhibition of growth of E. coli (OD 600 nm) ([8]; 60 µg/mL, over 24 hours, Supplementary Figure S1): least efficient
Reduction of mutation frequency E. coli (20 μg/ml) [9]: +

CC[C@H](C)[C@H](NC(=O)CNC(=O)[C@H](CCCCN)NC(=O)[C@@H](NC(=O)[C@H](CC(C)C)NC(=O)[C@H](Cc1c[nH]c2ccccc12)NC(=O)[C@H](CCCNC(=N)N)NC(=O)[C@H](CC(=O)O)NC(=O)[C@H](CCSC)NC(C)=O)C(C)C)C(=O)N[C@@H](CC(C)C)C(=O)N[C@@H](CCC(N)=O)C(=O)N[C@@H](Cc1c[nH]c2ccccc12)C(=O)N[C@@H](CCCNC(=N)N)C(=O)N[C@@H](CCCCN)C(=O)N[C@H](C(=O)N[C@@H](CCCNC(=N)N)C(=O)N[C@@H](CCCNC(=N)N)C(=O)N[C@@H](CCCNC(=N)N)C(=O)N[C@@H](CCCNC(=N)N)C(=O)N[C@@H](CCCNC(=N)N)C(=O)N[C@@H](CCCNC(=N)N)C(=O)N[C@@H](CCCNC(=N)N)C(=O)N[C@@H](CCCNC(=N)N)C(N)=O)[C@@H](C)CC [Peptide 5] (Ac-MDRWLVKGILQWRKIRRRRRRRR-NH2)
Reduction of viability HEK293 (24 μg/ml) [5]: +
MIC S. epidermidis MRSE [6]: 16 mg/L (≈ 4.95 µM)
MIC E. coli [7]: 16 mg/L (≈ 4.95 µM)
Reduction of viability E. coli (60 μg/ml) ([8]; 60 μg/ml peptide, OD600 every hour over 24 h, relative to untreated control): ++
UV-induced mutation frequencies relative to control ([9]; 20 μg/mL, UV-C 20 mJ/cm2, RifR assay, three independent experiments): significantly reduced
Reduction of mutation frequency E. coli (20 μg/ml) [9]: ++
